This note sets out measurements from patent US10640507B2, “PBD antibacterial agents” (KING'S COLLEGE LONDON, priority 2015, dated 2020).

Assay type in all cases: cell-based
Experiment [1] concerns E. faecalis VRE NCTC 12201. Nature of the experiment: General MIC protocol, Gram positive panel. The gist of the method: (§1)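 Compound was prepared at 64 μg/ml in water, serially halved across the plate and diluted twofold again by added inoculum. Final bacterial density was 5×10^5/ml in TSB. After 20 hours at 37° C, wells were scored for growth by OD600.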
A further experiment has as its system E. faecalis VSE NCTC 775. Briefly: General MIC protocol, Gram positive panel. Conditions: Enterococcus faecalis, NCTC775; VSE 775. The gist of the method: as §1
Experiment [2] has as its system E. faecium VRE NCTC 12204. Briefly: General MIC protocol, Gram positive panel. The gist of the method: as §1
For another experiment, the system named is EMRSA-15. Nature of the experiment: General MIC protocol, Gram positive panel. In short, it runs like this: as §1
For the next experiment, the system named is EMRSA-16. Nature of the experiment: General MIC protocol, Gram positive panel. The gist of the method:
as §1

Experiment [3] concerns methicillin sensitive S. aureus ATTC 9144 (NCTC 6571). Nature of the experiment: General MIC protocol, Gram positive panel. Particulars: Staphylococcus aureus, MSSA / NCTC 6571; MSSA 9144. The gist of the method:
as §1

A further experiment deals with A. baumannii AYE. Briefly: General MIC protocol, Gram negative. Particulars: Acinetobacter baumannii. In short, it runs like this: as §1
For a further experiment, the system named is A. baumannii NCTC 17978. Nature of the experiment: General MIC protocol, Gram negative. Conditions: Acinetobacter baumannii, NCTC17978. In short, it runs like this: as §1
The next experiment concerns K. pneumonia KP16. Nature of the experiment: General MIC protocol, Gram negative. Particulars: Klebsiella pneumoniae, KP16. The gist of the method:
as §1

The subject of a further experiment is K. pneumonia M6. Nature of the experiment: General MIC protocol, Gram negative. Conditions: Klebsiella pneumoniae; KP-M6. The gist of the method: as §1
The test system of another experiment is K. pneumonia NCTC 13368. Briefly: General MIC protocol, Gram negative. Particulars: Klebsiella pneumoniae, NCTC13368. In short, it runs like this:
as §1

The next experiment relates to K. pneumonia NCTC 13438. Nature of the experiment: General MIC protocol, Gram negative. Particulars: Klebsiella pneumoniae, NCTC13438. In short, it runs like this: as §1
The subject of the next experiment is K. pneumonia NCTC 13443. Nature of the experiment: General MIC protocol, Gram negative. Conditions: Klebsiella pneumoniae, NCTC13443. In short, it runs like this: as §1
The test system of another experiment is K. pneumonia NCTC 51851. Nature of the experiment: General MIC protocol, Gram negative. Conditions: Klebsiella pneumoniae, NCTC51851. In short, it runs like this: as §1
In another experiment the test system is P. aeruginosa NCTC 13437. Briefly: General MIC protocol, Gram negative. In short, it runs like this:
as §1

The subject of experiment [4] is HeLa (Cervical cancer cell line). Briefly: MTT cytotoxicity assay. Conditions: Homo sapiens, MTT, 24 h continuous exposure, read-out: IC50 HeLa (Cervical cancer cell line). (Formazan colour is commonly taken as a measure of viable cells.)
The next experiment concerns WI38 (Healthy cell line). Briefly: MTT cytotoxicity assay. Conditions: Homo sapiens, WI-38; MTT; 24 h continuous exposure; highest concentration tested 20 μM; read-out: IC50 WI38 (Healthy cell line).
Another experiment relates to Psueudomonas GH12. Briefly: General MIC protocol, Gram negative. Conditions: Pseudomonas. Here is the method: General Minimum Inhibitory Concentration (MIC) Protocol
1. Grow up cultures of bacterial strains to be tested overnight.
2. Dilute down overnight cultures to concentration of 1×10^6 bacteria/ml (OD0.01) in Tryptic soy broth (TSB).
3. Add 100 μl of TSB media to column 2-column 12 in 96 well plate (keeping column 1 clear).
4. Make up compound to a concentration of 64 μg/ml in water (or alternatively to twice the chosen maximum concentration to be tested).
5. Add 100 μl of antibiotic solution to the 1st and 2nd columns.
6. Using a multichannel pipette take 100 μl from the 2nd column wells and pipette into 3rd column wells and repeat down the 96 well plate (remembering to include controls i.e. uninfected media and media with no antibiotic).
7. To each well (except uninfected control row H) add 100 μl of bacterially infected media at a concentration of 1×10^6/ml.
8. This dilutes down the concentration of the antibiotic by half (top dose is therefore 32 μg/ml in column 1) and also gives you a starting bacterial concentration of 5×10^5/ml.
9. Wrap plate with parafilm to prevent evaporation.
10. Leave at desired temperature (37° C. unless specified elsewhere) for 20 hours.
11. Next day check plates for growth and measure optical density (i.e. absorbance) at a wavelength of 600 nm (OD600).
An example of such a plate is shown in FIG. 1 where column A represents wells that receive the top dose 100 μl; column B represents wells that receive the top dose 100 μl+100 μl TSB; and column C represents wells that receive 100 μl TSB. Row H which is marked by a box labelled D represents a blank where the cells receive no bacteria.
The activity of the compound designated PP-A148 was tested against an extended panel of Klebsiella and Pseudomonas Gram-negative bacterial strains that have proven drug resistant difficult to treat. […] The minimum inhibitory concentration (MIC) was measured using the general MIC protocol given above.

[5] abbreviates: Pseudomonas aeruginosa, NCTC13437.

The structures appear in SMILES notation. Values after ≈ are worked out from the molar mass of the structure shown.

As to `COc1cc2c(cc1OCCCC(=O)Nc1cc(C(=O)Nc3ccc4sc(C(=O)N(C)C)cc4c3)n(C)c1)N=C[C@@H]1CCCN1C2=O` [KMR-14-33, (S)—N-(2-(dimethylcarbamoyl)benzo[b]thiophen-5-yl)-4-(4-((7-methoxy-5-oxo-2,3,5,11a-tetrahydro-1H-benzo[e]pyrrolo[1,2-a][1,4]-diazepin-8-yl)oxy)butanamido)-1-methyl-1H-pyrrole-2-carboxamide], the MIC in experiment [1] was found to be 0.03 µg/mL (≈ 0.0457 µM); in the experiment on E. faecalis VSE NCTC 775 it was 0.03 µg/mL (≈ 0.0457 µM); in [2], 0.03 µg/mL (≈ 0.0457 µM); in the experiment with EMRSA-15 it was 0.03 µg/mL (≈ 0.0457 µM); against EMRSA-16 it was 0.06 µg/mL (≈ 0.0914 µM); in experiment [3] it was 0.03 µg/mL (≈ 0.0457 µM). For the same molecule, the MIC came to 1 µg/mL (≈ 1.52 µM) against A. baumannii AYE; 0.5 µg/mL (≈ 0.761 µM) against A. baumannii NCTC 17978; 0.25 µg/mL (≈ 0.381 µM) with K. pneumonia KP16; 1 µg/mL (≈ 1.52 µM) against K. pneumonia M6; 2 µg/mL (≈ 3.05 µM) in the experiment with K. pneumonia NCTC 13368; 0.5 µg/mL (≈ 0.761 µM) against K. pneumonia NCTC 13438. Besides, the MIC with K. pneumonia NCTC 13443 is 2 µg/mL (≈ 3.05 µM); in the experiment with K. pneumonia NCTC 51851, 2 µg/mL (≈ 3.05 µM); in the experiment on P. aeruginosa NCTC 13437 (NCTC 13437, KMR-14-33 alone), 32 µg/mL (≈ 48.7 µM); against P. aeruginosa NCTC 13437 (setting [5]) it was over 32 µg/mL. The values for the IC50 (in experiment [4]; in the experiment with WI38 (Healthy cell line)) were 15.6 µM and over 20 µM, respectively.
Take `COc1cc2c(cc1OCCCC(=O)Nc1cc(C(=O)Nc3ccc4oc(C(=O)N5CCSCC5)cc4c3)n(C)c1)N=C[C@@H]1CCCN1C2=O` [PP-A148, (S)-4-(4-((7-methoxy-5-oxo-2,3,5,11a-tetrahydro-1H-benzo-[e]pyrrolo[1,2-a][1,4]diazepin-8-yl)oxy)butanamido)-1-methyl-N-(2-(thiomorpholine-4-carbonyl)benzofuran-5-yl)-1H-pyrrole-2-carboxamide]: the MIC in experiment [1] is 0.25 to 0.5 µg/mL (≈ 0.358 to 0.716 µM); against E. faecalis VSE NCTC 775, 1 µg/mL (≈ 1.43 µM); in experiment [2] it was 0.01 µg/mL (≈ 0.0143 µM); in the experiment on EMRSA-15 it was 2 µg/mL (≈ 2.86 µM); with EMRSA-16, 2 µg/mL (≈ 2.86 µM); in [3] it was 0.5 µg/mL (≈ 0.716 µM). Further, the MIC with A. baumannii AYE was 2 µg/mL (≈ 2.86 µM); against A. baumannii NCTC 17978 it was 2 µg/mL (≈ 2.86 µM); with K. pneumonia KP16, 0.25 to 0.5 µg/mL (≈ 0.358 to 0.716 µM); in the experiment with K. pneumonia M6, 0.25 to 0.5 µg/mL (≈ 0.358 to 0.716 µM); against K. pneumonia NCTC 13368, 16 to 32 µg/mL (≈ 22.9 to 45.8 µM); with K. pneumonia NCTC 13438 it was 4 to 8 µg/mL (≈ 5.72 to 11.4 µM). For the same molecule, the MIC is 16 µg/mL (≈ 22.9 µM) with K. pneumonia NCTC 13443, 4 µg/mL (≈ 5.72 µM) against K. pneumonia NCTC 51851, 16 µg/mL (≈ 22.9 µM) in the experiment on P. aeruginosa NCTC 13437 (setting [5]) and over 128 µg/mL in the experiment with Psueudomonas GH12. The IC50 (in experiment [4]; in the experiment on WI38 (Healthy cell line)) was over 20 µM each time.
In the case of `O=C(O)c1cn(C2CC2)c2cc(N3CCNCC3)c(F)cc2c1=O` [CIP, ciprofloxacin, reference compound], the MIC with Psueudomonas GH12 turned out to be 16 µg/mL (≈ 48.3 µM).

The term MIC denotes the lowest concentration that inhibits growth of the organism. A low value points to a more susceptible organism. The term IC50 denotes the midpoint of a concentration-inhibition curve.
